Measured values: patent publication US11970469B2 (Oxford University Innovation Limited, priority 2018, dated 2024)

Target: GST-human KRas166 (G12V) GPPNHP (Homo sapiens, UniProt P01116, G12V)
Test: KRas small-molecule screening by SPR (BIACORE T200)
Format: binding
Set-up: KRAS166 (G12V) was immobilized between 10,000 to 15,000 Response Units; made in house; host or cells: E. coli C41(DE3)
Details: compounds at final concentration of 100 uM; immobilised KRAS166 (G12V) GPPNHP; no unit printed (method speaks of response units)
Description: For SPR assays pGEX-KRAS(G12V) plasmid was transformed into E. coli C41(DE3). Bacterial cells were cultured at 37° C. to an OD600 of 0.6 and induced with IPTG (final 0.1 mM) at 18° C. over night. The GST fusion proteins were extracted from bacteria pellets after cell disruption in 140 mM NaCl, 2.7 mM KCl, 10 mM NaH2PO4, 1.8 mM KH2PO4, 1 mM EDTA, 2 mM MgCl2 pH 7.4 and purified by glutathione-sepharose column chromatography (GE Healthcare), eluting with 50 mM Tris-HCl pH8.0, 10 mM reduced glutathione, 1 mM DTT, 2 mM MgCl2. The eluted proteins were dialysed against 50 mM Tris-HCl pH8.0, 1 mM DTT, 2 mM MgCl2 and concentrated to 10 mg/ml using a Biomax-30 ULTRAFREE-15 centrifugal filter device (Millipore). Purified KRAS protein was loaded with GPPNHP as described elsewhere (Pacold et al., 2000). Loaded protein was then purified by gel filtration on a HiLoad Superdex-75 HR column (GE Healthcare) in 1×PBS pH7.4, 5 mM MgCl2 and concentrated for storage. Protocol for KRas small-molecule screening and affinity measurements by SPR
To a previously immobilized CM5 chip (GE Healthcare BR-1005-30) with anti GST antibody via amine coupling method, GST in channel 1 and GST-human KRas166 (G12V) GPPNHP in channel 2 were immobilised. GST was immobilised between 2,000 and 5,000 Response units. KRAS166 (G12V) was immobilized between 10,000 to 15,000 Response Units. […]

COc1cccc(-c2ccc(Nc3ccc(C(=O)NCC4CCN(C(=O)OC(C)(C)C)CC4)cc3)cc2)c1 [Example 19] was tested, and the SPR was 33.
